How the values were obtained:
[1] = system: 3WJ-T6 (DNA, junction) ACTCTTCTCGTTTTTTCGAGAGCGACTTTTTTGTCGCAGAGT; test: ITC; conditions: 100 mM NaCl, 10 mM sodium cacodylate, pH 7.4, 25 °C, at ITC detection limit
[2] = system: Cy5–3WJ-T3 (DNA, junction) CGGAACGGCACTCGTTTCGAGTGCAGCGTGGTTTCCACGCTCGTTCCG; test: MST; conditions: 100 mM NaCl, 10 mM Na cacodylate
[3] = system: 4WJ (DNA, junction) GCCTAGCATGATACTGCTACCG/CGGTAGCAGTACCGTTGGTGGC/GCCACCAACGGCGTCAACTGCC/GGCAGTTGACGTCATGCTAGGC; test: UV melting; conditions: 100 mM NaCl; 10 mM Na cacodylate; 1 equivalent compound
[4] = system: DS-21 (CD) (DNA, duplex) CCTTCACGCGAACGTAATCCT/AGGATTACGTTCGCGTGAAGG; test: CD; conditions: 1 equivalent compound
[5] = system: FAM–4WJ (DNA, junction) GCCTAGCATGATACTGCTACCG/CGGTAGCAGTACCGTTGGTGGC/GCCACCAACGGCGTCAACTGCC/GGCAGTTGACGTCATGCTAGGC; test: MST; conditions: 100 mM NaCl; 10 mM Na cacodylate; not saturated, highest 100 μM
[6] = system: DS-21 (MST) (DNA, duplex) CCTTCACGCGAACGTAATCCT/AGGATTACGTTCGCGTGAAGG; test: MST; conditions: highest tested 50 μM; authors suggest Kd at best high micromolar
[7] = system: Y-fork (DNA, junction) CGGTAGCAGTACCGTTGGTGGC/GCCACCAACGGCGTCAACTGCC; test: PAGE competition; conditions: competes with 3WJ-FAM; ~22% decrease of 3WJ at 4 equivalents

SMILES | Kd [1] | Kd ([2]; 0.1% Tween-20, 25 °C, 1 nM DNA) | ΔTm [3] [°C] | binding [4] | Kd ([1]; 0.5% acetonitrile) | Kd ([2]; 0.1% Tween, 25 °C, 20 nM DNA) | Kd [5] [µM] | binding [6] | binding [7]
C(=Nc1ccc(Cc2ccc(N=Cc3ccccn3)cc2)cc1)c1ccccn1.C(=Nc1ccc(Cc2ccc(N=Cc3ccccn3)cc2)cc1)c1ccccn1.C(=Nc1ccc(Cc2ccc(N=Cc3ccccn3)cc2)cc1)c1ccccn1.[Ni+2].[Ni+2] | 7.17 ± 0.51 × 10^–9 M | 5.15 ± 0.67 × 10^–10 M | 8.8 ± 1.0 | – | – | – | – | – | –
[Pt+2].[Pt+2].c1cncc(Oc2ccc(Oc3cccnc3)cc2)c1.c1cncc(Oc2ccc(Oc3cccnc3)cc2)c1.c1cncc(Oc2ccc(Oc3cccnc3)cc2)c1.c1cncc(Oc2ccc(Oc3cccnc3)cc2)c1 | – | – | 6.0 ± 1.1 | weak | 9.94 ± 4.36 × 10^–9 M | 1.22 ± 0.22 × 10^–8 M | > 4 | no | weak
